From patent US20200188297A1, “LXR Agonist in Topical Ophthalmic Formulation for Treatment of Dry-Eye Disorder” (eyeNOS, Inc., priority 2018, published 2020)
Where two headings read alike, the source gives them in different places.

Tests used:
[1] = system: human corneal epithelial cells (HCE-T); assay: Multiplex cytokine expression analysis, hyperosmolar stress insult; format: cell-based; settings: 200 nM, preincubation 1 hour, 600 mOsm for 20 hours
Method: The anti-inflammatory effects of T0901317 were studied on in-vitro cell culture of human corneal epithelial cells (HCE-T). HCE-T cells were grown in DMEM/F12 (1:1), 5% fetal bovine serum, penicillin-streptomycin, […] insulin, 10 ng/ml human recombinant epidermal growth factor and 0.5% dimethyl sulfoxide in 5% CO2 at 37° C. To simulate dry-eye conditions, the cells were exposed to hyperosmolar stress insult as described in Chen et al, “Hyperosmolarity-Induced Cornification of Human Corneal Epithelial Cells Is Regulated by JNK MAPK” (February 2008) Investigative Ophthalmology & Visual Science, 49(2):539-549. Confluent HCE-T were passaged into 12-well plates containing KSFM media (keratinocyte-SFM media) for 24 hours, and then NaCl was added to wells in concentrations to produce media osmolarities in the range of 350-800 mOsm. Multiplex cytokine expression analysis was performed to determine the anti-inflammatory effects of T0901317 (at 200 nM).

[2] = system: human corneal epithelial cells (HCE-T); assay: Multiplex cytokine expression analysis, LPS-induced secretion; format: cell-based; settings: LPS 10 ng/ml, preincubation with compound
Method: The anti-inflammatory effects of T0901317 were studied on in-vitro cell culture of human corneal epithelial cells (HCE-T). […] Multiplex cytokine expression analysis was performed to determine the anti-inflammatory effects of T0901317 (at 200 nM). […] Lipopolysaccharide (LPS)-induced (10 ng/ml) secretion of IL-17, IL-18, and IFNγ was also examined. […] Topical application is not expected to result in activation of the pregnane X receptor (PXR), supporting the notion that the anti-inflammatory effects observed here, both in-vivo and in-vitro, can be attributed to LXR activation.

retinoid X receptor = settings: read-out: EC50 for activation of the retinoid X receptor; cited from earlier work
[3] = system: liver X receptors (LXRα, LXRβ); settings: cited from earlier work
[4] = system: human corneal epithelial (HCE-T) cells; assay: ZO-1 immunocytochemistry (barrier function) under hyperosmolar stress; format: cell-based; settings: 0.05 μM in DMSO, pre-treated one hour; 50 mM NaCl overnight; FIG. 20
Method: The corneal epithelium serves as a physiological barrier. However, inflammation and the ensuing oxidative stress can impair barrier function and contribute to the exacerbation of inflammatory processes and increase susceptibility to other ocular surface conditions, such as corneal keratitis. The effect of ouabagenin on the barrier function of human corneal epithelial (HCE-T) cells was tested in in-vitro experiments. The cells were seeded at 25,000 cells/well in 8-chamber slides. Cells were incubated for 3 days at 37° C. until confluent. Cells were pre-treated with DMSO (vehicle) or ouabagenin (0.05 μM in DMSO). One hour later, cells received treatment of 0 (media), 25, 50, or 75 mM NaCl to mimic hyperosmolar conditions. Cells were incubated overnight at 37° C.
Zona occludens 1 (ZO-1) is a tight junction protein that is involved in the barrier function of corneal epithelium. The presence of ZO-1 (or absence thereof) is an indicator of the health of this barrier. In this experiment, immunocytochemistry for ZO-1 was performed on the HCE-T cells after the overnight incubation. Slides were imaged under a fluorescent microscope.

SMILES	hyperosmolar stress-induced secretion of IL-12 ([1]; FIG. 19B)	hyperosmolar stress-induced secretion of IL-17 ([1]; FIG. 19C)	LPS-induced secretion of IL-17 ([2]; FIG. 19D)	LPS-induced secretion of IL-18 ([2]; FIG. 19E)	LPS-induced secretion of IFNγ ([2]; FIG. 19F)	EC50 (retinoid X receptor) [µM]	LXR subtype selectivity [3]	ZO-1 at the cell junctions (barrier function) [4]	LXR subtype selectivity ([3]; literature reports)
O=S(=O)(c1ccccc1)N(CC(F)(F)F)c1ccc(C(O)(C(F)(F)F)C(F)(F)F)cc1 [T0901317]	fully suppressed	fully suppressed	suppressed	suppressed	suppressed	5	selective for the LXRα subtype		
C[C@]12C[C@@H](O)[C@H]3[C@@H](CC[C@]4(O)C[C@@H](O)C[C@@H](O)[C@]34CO)[C@@]1(O)CC[C@@H]2C1=CC(=O)OC1 [ouabagenin]								protected against this loss of ZO-1 barrier function	LXRβ-subtype specific agonist
